By mass density is commonly meant mass per unit of volume. One may read the refractive index as the speed of light in vacuum divided by its phase velocity in the sample.

Structures are written as SMILES. Numbers after ± are expanded uncertainties.

Data on six compounds can be found in the NIST ThermoML archive (doi:10.1016/j.jct.2013.08.023).

Test in the first data set: not given
Conditions: 298.15 K; 101 kPa; Liquid; Vibrating tube method.
`CCCC[N+](C)(C)C.O=S(=O)([N-]S(=O)(=O)C(F)(F)F)C(F)(F)F` [butyltrimethylammonium bis(trifluoromethylsulfonyl)imide]: the mass density was determined as 1393 ± 0.2 kg/m3.

For `CCO` [ethanol], the mass density is 785.9 ± 0.2 kg/m3.

For the compound `CCCCCCC` [heptane], the mass density was 679.6 ± 0.3 kg/m3.

As to `CCCCCC` [hexane], the mass density came out at 655.2 ± 0.3 kg/m3.

As to `CO` [methanol], the mass density was found to be 786.9 ± 0.2 kg/m3.

Regarding `CCCC[N+](C)(CCCC)CCCC.O=S(=O)([N-]S(=O)(=O)C(F)(F)F)C(F)(F)F` [tributylmethylammonium bis((trifluoromethyl)sulfonyl)imide], the mass density worked out at 1261.3 ± 0.2 kg/m3.

The nature of the next data set: refractive index (Na D-line) (dimensionless). Particulars: 298.15 K; 101 kPa; Liquid; Standard Abbe refractometry.
In the case of `CCCC[N+](C)(C)C.O=S(=O)([N-]S(=O)(=O)C(F)(F)F)C(F)(F)F` [butyltrimethylammonium bis(trifluoromethylsulfonyl)imide], the refractive index was found to be 1.40806 ± 0.00031.

As for `CCO` [ethanol], the refractive index worked out at 1.35936 ± 0.00037.

For the compound `CCCCCCC` [heptane], the refractive index is on record as 1.38529 ± 0.00037.

Turning to `CCCCCC` [hexane], the refractive index worked out at 1.37241 ± 0.00037.

In the case of `CO` [methanol], the refractive index is on record as 1.32636 ± 0.00037.

For `CCCC[N+](C)(CCCC)CCCC.O=S(=O)([N-]S(=O)(=O)C(F)(F)F)C(F)(F)F` [tributylmethylammonium bis((trifluoromethyl)sulfonyl)imide], the refractive index is recorded as 1.42614 ± 0.00032.
